Reference: patent publication US11141413B2, “Method of treating renal cell carcinoma using N-(4-(6,7-dimethoxyquinolin-4-yloxy)phenyl)-N′-(4-fluorophenyl)cyclopropane-1,1-dicarboxamide, (2S)-hydroxybutanedioate” (Exelixis, Inc., priority 2016, dated 2021)
“And” between values parts separate entries of the source, which are not always exact repeats. Equal values may be shown once.

Tested on: advanced renal cell carcinoma (RCC)
Experiment: METEOR (Study 1) randomized phase 3 trial, cabozantinib vs everolimus: PFS, OS, ORR
Type: in vivo, human
Settings: for ORR (95% CI), IRC / ORR (95% CI), Investigator assessed / Progressive disease, IRC / Progressive disease, Investigator assessed / Stable disease, IRC / Stable disease, Investigator assessed / Confirmed ORR (95% CI), IRC / Confirmed ORR (95% CI), Investigator assessed / Confirmed responses (95% CI), IRC / Confirmed responses (95% CI), Investigator assessed: RECIST 1.1; for PFS event: all randomized
[1] = Patients With High Tumor Burden
[2] = Pts with Bone and Visceral Metastases
[3] = prior therapy subgroup Anti-PD-1/PD-L1
[4] = prior therapy subgroup Pazopanib Only
[5] = prior therapy subgroup Sunitinib Only

CO[C@H]1C[C@@H]2CC[C@@H](C)[C@@](O)(O2)C(=O)C(=O)N2CCCC[C@H]2C(=O)O[C@H]([C@H](C)C[C@@H]2CC[C@@H](OCCO)[C@H](OC)C2)CC(=O)[C@H](C)/C=C(\C)[C@@H](O)[C@@H](OC)C(=O)[C@H](C)C[C@H](C)/C=C/C=C/C=C/1C [everolimus]
Kaplan-Meier estimate of % of patients alive (6 Months landmark): 81% (76%, 85%) | Kaplan-Meier estimate of % of patients alive (12 Months landmark): 63% and 63% (58%, 78%) | Kaplan-Meier estimate of % of patients alive (18 Months landmark): 47% | Kaplan-Meier estimate of % of patients alive (18 Months landmark, listed as Everolimus): 47% (41%, 52%) | Kaplan-Meier estimate of % of patients alive (24 Months landmark): 31% (23%, 39%) | ORR (95% CI), IRC (Asia Pacific): 2 (0-11) % | ORR (95% CI), Investigator assessed (Asia Pacific): 4 (1-15) % | Progressive disease, IRC (Asia Pacific): 28% | Progressive disease, Investigator assessed (Asia Pacific): 26% | Stable disease, IRC (Asia Pacific): 60% | Stable disease, Investigator assessed (Asia Pacific): 60% | ORR (95% CI), IRC (Europe): 4 (1-8) % | ORR (95% CI), Investigator assessed (Europe): 4 (1-8) % | Progressive disease, IRC (Europe): 24% | Progressive disease, Investigator assessed (Europe): 25% | Stable disease, IRC (Europe): 65% | Stable disease, Investigator assessed (Europe): 66% | Median OS (ITT, all 658 randomized, cutoff Dec. 31, 2015): 16.5 months | Median OS (ITT, all 658 randomized, cutoff Dec. 31, 2015, listed as Everolimus): 16.5 (14.7, 18.8) months | Objective response rate (confirmed, partial responses only) per IRC (ITT, all 658 randomized, cutoff May 22, 2015): 3% | Objective response rate (confirmed, partial responses only) per IRC (ITT, all 658 randomized, cutoff May 22, 2015, listed as eve): 3% | ORR (95% CI), IRC (North America): 2 (1-7) % | ORR (95% CI), Investigator assessed (North America): 3 (1-8) % | Progressive disease, IRC (North America): 30% | Progressive disease, Investigator assessed (North America): 29% | Stable disease, IRC (North America): 59% | Stable disease, Investigator assessed (North America): 62% | Confirmed ORR (95% CI), IRC [1]: 0% | Confirmed ORR (95% CI), Investigator assessed [1]: 1 (0-4) % | Progressive disease, IRC [1]: 26% | Progressive disease, Investigator assessed [1]: 27% | Stable disease, IRC [1]: 64% | Stable disease, Investigator assessed [1]: 62% | Confirmed ORR (95% CI), IRC (Patients With Low Tumor Burden): 7 (3-12) % | Confirmed ORR (95% CI), Investigator assessed (Patients With Low Tumor Burden): 7 (4-13) % | Progressive disease, IRC (Patients With Low Tumor Burden): 28% | Progressive disease, Investigator assessed (Patients With Low Tumor Burden): 27% | Stable disease, IRC (Patients With Low Tumor Burden): 60% | Stable disease, Investigator assessed (Patients With Low Tumor Burden): 64% | Confirmed responses (95% CI), IRC (Pts with Bone Metastases): 0% | Confirmed responses (95% CI), Investigator assessed (Pts with Bone Metastases): 0% | Progressive disease, IRC (Pts with Bone Metastases): 37% | Progressive disease, Investigator assessed (Pts with Bone Metastases): 26% | Stable disease, IRC (Pts with Bone Metastases): 54% | Stable disease, Investigator assessed (Pts with Bone Metastases): 63% | Confirmed responses (95% CI), IRC [2]: 0% | Confirmed responses (95% CI), Investigator assessed [2]: 0% | Progressive disease, IRC [2]: 44% | Progressive disease, Investigator assessed [2]: 29% | Stable disease, IRC [2]: 44% | Stable disease, Investigator assessed [2]: 59% | Confirmed responses (95% CI), IRC (Pts without Bone Metastases): 4 (2-7) % | Confirmed responses (95% CI), Investigator assessed (Pts without Bone Metastases): 5 (3-9) % | Progressive disease, IRC (Pts without Bone Metastases): 24% | Progressive disease, Investigator assessed (Pts without Bone Metastases): 26% | Stable disease, IRC (Pts without Bone Metastases): 64% | Stable disease, Investigator assessed (Pts without Bone Metastases): 63% | Objective response rate per investigator (all 658 randomized, cutoff May 22, 2015): 4% | Median duration of PFS (all 658 randomized, per IRC, cutoff May 22, 2015): 3.9 months | Median duration of PFS (all 658 randomized, per IRC, cutoff May 22, 2015, listed as Everolimus): 3.9 (3.7-5.1) months and 3.9 months | Median duration of PFS (all 658 randomized, per investigator, cutoff May 22, 2015): 5.1 (3.9-5.5) months | PFS event (per IRC, cutoff May 22, 2015): 214 (66) ^ n (%) | PFS event (per investigator, cutoff May 22, 2015): 233 (71) ^ n (%) | Median PFS (first 375 randomized, per independent radiology review committee (IRC)): 3.8 months | Median PFS (first 375 randomized, per independent radiology review committee (IRC), listed as Everolimus): 3.8 (3.7, 5.4) months | Median PFS (first 375 randomized, per independent radiology review committee (IRC), listed as eve): 3.8 months | Median OS (high MET tumor expression): 15.2 months | Median OS (high tumor burden): 12.2 mo | Patients with reduction in measurable tumor lesion size (in vivo): 48% | Median OS (low MET tumor expression): 18.4 months | Median OS (low tumor burden): 19.3 mo | Median OS (patients enrolled in Canada): 12.8 mo | Median PFS (patients enrolled in Canada): 3.7 mo | ORR (patients enrolled in Canada): 0% | Median PFS (patients with bone and visceral metastases): 1.9 mo | Median PFS (patients with bone metastases): 2.7 mo | Best overall response: confirmed complete response (per IRC): 0 n | Best overall response: confirmed partial response (per IRC): 11 n | Best overall response: confirmed complete response (per investigator): 0 n | Confirmed ORR (95% CI), tumor response by IRC [3]: 0% | Confirmed ORR (95% CI), tumor response by investigator [3]: 0% | Progressive disease, tumor response by IRC [3]: 29% | Progressive disease, tumor response by investigator [3]: 14% | Stable disease, tumor response by IRC [3]: 64% | Stable disease, tumor response by investigator [3]: 86% | Confirmed ORR (95% CI), tumor response by IRC [4]: 4 (1-10) % | Confirmed ORR (95% CI), tumor response by investigator [4]: 4 (1-10) % | Progressive disease, tumor response by IRC [4]: 22% | Progressive disease, tumor response by investigator [4]: 27% | Stable disease, tumor response by IRC [4]: 66% | Stable disease, tumor response by investigator [4]: 64% | Confirmed ORR (95% CI), tumor response by IRC [5]: 3 (1-8) % | Confirmed ORR (95% CI), tumor response by investigator [5]: 4 (1-9) % | Progressive disease, tumor response by IRC [5]: 35% | Progressive disease, tumor response by investigator [5]: 29% | Stable disease, tumor response by IRC [5]: 57% | Stable disease, tumor response by investigator [5]: 63% | Deaths (second interim analysis of OS, of randomized patients): 55%
